Source: patent US20240254087A1, “SELECTIVE, PARTIAL, AND ARRESTIN-BIASED 5-HT2A AGONISTS WITH UTILITY IN VARIOUS DISORDERS” (Saint Joseph's University, priority 2021, published 2024)
Read-outs that look alike come from different tables or passages of the source.

What was measured:
[1] = biological target: T1, 5-HT1A (Homo sapiens, UniProt P08908); assay: Competitive radioligand binding (NIMH PDSP)
T1 sequence (P08908 1-422): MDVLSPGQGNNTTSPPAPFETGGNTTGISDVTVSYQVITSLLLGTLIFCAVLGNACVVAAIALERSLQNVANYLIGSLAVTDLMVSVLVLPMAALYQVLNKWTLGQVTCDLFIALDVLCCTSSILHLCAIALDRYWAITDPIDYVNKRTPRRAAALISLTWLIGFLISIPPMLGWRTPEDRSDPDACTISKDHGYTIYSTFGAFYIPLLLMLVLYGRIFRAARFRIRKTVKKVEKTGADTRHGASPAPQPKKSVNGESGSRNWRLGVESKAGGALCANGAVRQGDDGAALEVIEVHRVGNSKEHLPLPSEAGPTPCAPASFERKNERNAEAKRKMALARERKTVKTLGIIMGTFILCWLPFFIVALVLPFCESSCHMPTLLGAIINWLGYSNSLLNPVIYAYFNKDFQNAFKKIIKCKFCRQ
Protocol: (§1) Method 1: Competitive binding experiments were performed by the National Institute of Mental Health Psychoactive Drug Screening Program (NIMH PDSP) using described methods or 5-HT2A experiments performed using [3H]-ketanserin displacement in human 5-HT2A expressing membranes. Target compounds were dissolved in DMSO and an initial screen performed to assess displacement of the radioligand from target receptors at a concentration of 10,000 nM. […] For the Ki experiments, compounds were always tested in triplicate on separate plates. Each plate also contained a known ligand for the receptor as a positive control.

[2] = biological target: T2, 5-HT2A (Homo sapiens, UniProt P28223); assay: Competitive radioligand binding (NIMH PDSP)
Protocol: as §1

[3] = biological target: 5-HT1B (Homo sapiens, UniProt P28222); assay: Competitive radioligand binding (NIMH PDSP)
Protocol: as §1

[4] = biological target: T3, 5-HT3 (Homo sapiens, UniProt P46098); assay: Competitive radioligand binding (NIMH PDSP)
T3 sequence (P46098 24-478): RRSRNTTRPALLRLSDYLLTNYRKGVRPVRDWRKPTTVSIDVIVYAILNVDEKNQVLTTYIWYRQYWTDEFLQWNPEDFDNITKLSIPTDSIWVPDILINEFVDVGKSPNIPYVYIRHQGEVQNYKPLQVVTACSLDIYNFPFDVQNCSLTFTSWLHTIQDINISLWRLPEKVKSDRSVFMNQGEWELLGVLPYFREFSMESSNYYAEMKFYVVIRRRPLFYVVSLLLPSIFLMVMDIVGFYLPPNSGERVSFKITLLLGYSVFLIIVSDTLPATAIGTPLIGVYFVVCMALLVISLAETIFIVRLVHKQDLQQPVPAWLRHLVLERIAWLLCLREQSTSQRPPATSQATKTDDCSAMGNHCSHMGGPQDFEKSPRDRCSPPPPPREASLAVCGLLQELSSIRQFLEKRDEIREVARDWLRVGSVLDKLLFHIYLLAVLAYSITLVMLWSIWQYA
Protocol: as §1

[5] = biological target: 5-HT1D (Homo sapiens, UniProt P28221); assay: Competitive radioligand binding (NIMH PDSP)
Protocol: as §1

[6] = biological target: 5-HT1e (Homo sapiens, UniProt P28566); assay: Competitive radioligand binding (NIMH PDSP)
Protocol: as §1

[7] = biological target: T4, 5-HT2B (Homo sapiens, UniProt P41595); assay: Ca2+ flux assay, 5-HT2B; format: cell-based; parameters: expressed in transfected cells; settings: Ca2+ flux; for Emax: read-out: 5-HT2B Emax % 5-HT
[8] = biological target: T5, 5-HT2C (Homo sapiens, UniProt P28335); assay: Ca2+ flux assay, 5-HT2C; format: cell-based; parameters: expressed in transfected cells; settings: for Emax: read-out: 5-HT2C Emax % 5-HT
T5 sequence (P28335 33-458): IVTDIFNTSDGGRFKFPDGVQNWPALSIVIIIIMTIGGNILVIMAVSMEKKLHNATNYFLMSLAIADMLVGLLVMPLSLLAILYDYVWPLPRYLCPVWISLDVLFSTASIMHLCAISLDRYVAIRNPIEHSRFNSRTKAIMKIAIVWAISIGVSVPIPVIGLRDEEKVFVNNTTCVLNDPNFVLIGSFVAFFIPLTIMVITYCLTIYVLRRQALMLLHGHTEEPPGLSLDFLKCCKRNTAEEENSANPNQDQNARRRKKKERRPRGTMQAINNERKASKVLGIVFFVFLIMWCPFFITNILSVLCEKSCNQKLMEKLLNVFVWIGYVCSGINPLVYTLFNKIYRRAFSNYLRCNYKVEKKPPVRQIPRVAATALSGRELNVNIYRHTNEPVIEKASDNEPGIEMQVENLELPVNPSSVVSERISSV

[9] = test system: 5-HT2A; assay: Ca2+ flux assay, 5-HT2A; format: cell-based, human; settings: Gq/11 Ca2+ mobilization; higher number = skewed towards 5-HT2A
[10] = biological target: T4, 5-HT2B; assay: Competitive radioligand binding (NIMH PDSP); parameters: expressed in transfected cells
Protocol: as §1

[11] = biological target: T5, 5-HT2C; assay: Competitive radioligand binding (NIMH PDSP); parameters: expressed in transfected cells
Protocol: as §1

[12] = biological target: T2, 5-HT2A; assay: Ca2+ flux assay, 5-HT2A; format: cell-based; parameters: expressed in transfected cells; settings: for Emax: read-out: 5-HT2A Emax % 5-HT, Ca2+ flux

T2 sequence (P28223 whole entry): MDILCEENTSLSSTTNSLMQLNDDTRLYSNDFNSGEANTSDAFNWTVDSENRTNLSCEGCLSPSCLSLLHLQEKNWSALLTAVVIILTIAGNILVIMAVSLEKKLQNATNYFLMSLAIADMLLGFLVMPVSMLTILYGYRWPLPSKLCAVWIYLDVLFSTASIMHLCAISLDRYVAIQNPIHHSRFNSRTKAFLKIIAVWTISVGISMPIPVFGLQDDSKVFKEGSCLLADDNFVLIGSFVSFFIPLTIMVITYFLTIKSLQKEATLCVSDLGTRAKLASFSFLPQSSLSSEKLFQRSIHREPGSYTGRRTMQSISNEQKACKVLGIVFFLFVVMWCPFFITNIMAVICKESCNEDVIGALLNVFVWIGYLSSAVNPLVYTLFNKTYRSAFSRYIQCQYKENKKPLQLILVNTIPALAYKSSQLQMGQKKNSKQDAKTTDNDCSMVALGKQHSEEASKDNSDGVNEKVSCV
Sequence of 5-HT1e (P28566 whole entry, species assumed): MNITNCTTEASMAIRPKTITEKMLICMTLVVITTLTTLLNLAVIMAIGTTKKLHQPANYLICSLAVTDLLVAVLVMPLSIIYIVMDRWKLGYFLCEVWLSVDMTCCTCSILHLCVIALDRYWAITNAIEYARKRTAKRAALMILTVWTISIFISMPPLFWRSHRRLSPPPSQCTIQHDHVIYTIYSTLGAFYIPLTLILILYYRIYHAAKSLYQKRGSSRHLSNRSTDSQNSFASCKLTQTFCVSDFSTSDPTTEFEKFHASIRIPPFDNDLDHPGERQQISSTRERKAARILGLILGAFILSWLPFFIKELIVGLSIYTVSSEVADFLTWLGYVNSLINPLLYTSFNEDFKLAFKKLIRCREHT
T4 sequence (P41595 whole entry): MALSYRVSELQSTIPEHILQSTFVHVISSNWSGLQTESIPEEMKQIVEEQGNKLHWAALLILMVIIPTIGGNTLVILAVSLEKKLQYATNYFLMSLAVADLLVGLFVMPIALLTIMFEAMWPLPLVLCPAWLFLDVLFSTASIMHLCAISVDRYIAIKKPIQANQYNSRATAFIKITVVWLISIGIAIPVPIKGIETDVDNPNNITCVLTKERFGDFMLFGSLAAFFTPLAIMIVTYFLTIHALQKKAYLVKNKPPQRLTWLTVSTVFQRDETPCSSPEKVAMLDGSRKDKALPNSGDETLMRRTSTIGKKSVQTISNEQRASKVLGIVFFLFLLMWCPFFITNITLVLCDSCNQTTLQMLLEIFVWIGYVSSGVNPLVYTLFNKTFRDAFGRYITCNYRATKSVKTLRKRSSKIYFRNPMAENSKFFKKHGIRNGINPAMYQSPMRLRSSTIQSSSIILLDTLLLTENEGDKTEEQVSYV
Sequence of 5-HT1D (P28221 whole entry, species assumed): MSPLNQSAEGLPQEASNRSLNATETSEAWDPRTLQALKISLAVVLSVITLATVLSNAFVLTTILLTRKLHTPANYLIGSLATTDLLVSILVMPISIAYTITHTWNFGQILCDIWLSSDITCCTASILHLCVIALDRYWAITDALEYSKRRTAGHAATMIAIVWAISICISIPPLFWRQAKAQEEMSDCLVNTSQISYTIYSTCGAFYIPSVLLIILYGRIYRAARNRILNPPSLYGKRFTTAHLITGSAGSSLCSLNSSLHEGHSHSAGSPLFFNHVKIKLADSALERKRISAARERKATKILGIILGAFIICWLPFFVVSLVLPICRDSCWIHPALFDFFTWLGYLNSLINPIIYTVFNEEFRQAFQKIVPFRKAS
Sequence of 5-HT1B (P28222 whole entry, species assumed): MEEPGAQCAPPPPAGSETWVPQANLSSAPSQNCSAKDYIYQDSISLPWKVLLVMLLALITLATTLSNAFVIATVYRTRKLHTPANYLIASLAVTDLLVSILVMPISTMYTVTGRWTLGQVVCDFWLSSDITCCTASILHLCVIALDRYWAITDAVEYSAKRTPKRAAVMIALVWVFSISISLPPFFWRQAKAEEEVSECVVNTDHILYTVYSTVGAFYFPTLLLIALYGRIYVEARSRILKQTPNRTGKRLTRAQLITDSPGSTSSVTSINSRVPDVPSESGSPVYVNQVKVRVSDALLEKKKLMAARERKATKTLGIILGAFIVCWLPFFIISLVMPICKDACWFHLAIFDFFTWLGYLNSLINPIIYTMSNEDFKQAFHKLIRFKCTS

| SMILES | Ki [1] [µM] | Ki [2] [µM] | Ki [3] [µM] | Ki [4] [µM] | Ki [5] [µM] | Ki [6] [µM] | 5-HT2B EC50, nM [7] | Emax [7] [%] | EC50 ([8]; 5-HT2C EC50, nM) [nM] | Emax [8] [%] | 5-HT2A/5-HT2c Selectivity Factor ΔLog(Emax/EC50) [9] | Ki [10] [µM] | Ki [11] [µM] | EC50 ([12]; 5-HT2A EC50, nM, Ca2+ flux) [nM] | 5-HT2A Emax % 5-HT ([12]; Ca2+ flux) [% 5-HT] | Emax [12] [%] | also measured |
| --- | --- | --- | --- | --- | --- | --- | --- | --- | --- | --- | --- | --- | --- | --- | --- | --- | --- |
| COc1cc([N+](=O)[O-])c(OC)cc1CCNCc1ccccc1C(F)(F)F [25N-NBCF3 (14), [2-(2,5-dimethoxy-4-nitrophenyl)ethyl]({[2-(trifluoromethyl)phenyl]methyl}) amine] | 1.07 | 0.02 | > 10 | > 10 | > 10 | > 10 | No activity | < 10 | 271 | 20 ± 2 | 85.5 | 0.0589 | 0.102 | 12.3 | 77 ± 1 | ≤ 77 |  |
| COc1cc([N+](=O)[O-])c(OC)cc1CCNCc1ccccc1 [25N-NB (2), Benzyl[2-(2,5-dimethoxy-4-nitrophenyl)ethyl]amine] |  |  |  |  |  |  | No activity | < 10 | 26.2 | 75 ± 1 | 23.6 |  |  | 1.27 |  | 86 ± 1 |  |
| COc1cc([N+](=O)[O-])c(OC)cc1CCNCc1cccc(F)c1OC [25N-NB-2-MeO-3-F (19), [2-(2,5-dimethoxy-4-nitrophenyl)ethyl][(3-fluoro-2-methoxyphenyl)methyl]amine] | 1 | 0.00741 | > 10 | > 10 | > 10 | > 10 | No activity | < 10 | 74.5 | 77 ± 2 | 33.8 | 0.0251 | 0.0407 | 2.35 |  | 83 ± 1 |  |
| COc1cc([N+](=O)[O-])c(OC)cc1CCNCc1ccccc1OC(F)(F)F [25N-NBOCF3 (12)] |  |  |  |  |  |  | No activity |  |  |  | 6.1 |  |  |  | 75 ± 2 |  | 5-HT1A pKi affinity (Ki ± SEM) [1]: 5.95; 5-HT2A pKi affinity (Ki ± SEM) [2]: 7.84; 5-HT1B pKi affinity (Ki ± SEM) [3]: <5; 5-HT3 pKi affinity (Ki ± SEM) [4]: <5; 5-HT1D pKi affinity (Ki ± SEM) [5]: <5; 5-HT1e pKi affinity (Ki ± SEM) [6]: <5; 5-HT2B Emax % 5-HT [7]: <10 % 5-HT; 5-HT2C (pEC50 ± SEM) [8]: (7.23 ± 0.04); 5-HT2C Emax % 5-HT [8]: 89 ± 1 % 5-HT; EC50 ([8]; read-out: 5-HT2C EC50): 58.3 nM; 5-HT2B pKi affinity (Ki ± SEM) [10]: 7.86; 5-HT2C pKi affinity (Ki ± SEM) [11]: 7.33; 5-HT2A (pEC50 ± SEM) ([12]; Ca2+ flux): (8.09 ± 0.09); EC50 ([12]; Ca2+ flux, read-out: 5-HT2A EC50): 8.09 nM |
| COc1cc([N+](=O)[O-])c(OC)cc1CCNCc1ccccc1I [25N-NBI (10)] | 1 | 0.00537 | > 10 | > 10 | > 10 | > 10 | No activity | < 10 | 682 | 45 ± 2 | 406 | 0.02 | 0.0437 | 3.29 |  | 88 ± 1 |  |
